This is an account of results in article PMC13159774, “Functional Characterization of the Cat and Dog Wild‐Type and Mutant MDR1 Carrier Proteins and Frequency of the MDR1 Gene Mutation in 800 Cats From Germany” (Journal of Veterinary Pharmacology and Therapeutics, 2025).

For data set [1], the target named is dog MDR1 wt (canine MDR1 carrier) (Canis lupus familiaris, UniProt Q4PLA8). In words: Rh123 efflux inhibition (IC50) in stably transfected MDR1-HEK293 cells, dog MDR1 wt. Particulars: for IC50: IC50, inhibition of Rh123 efflux, dog MDR1 wt, 5 μM Rh123, HEK293 after tetracycline treatment, one value per independent experiment (two experiments). The protocol: (§1) Transport inhibition experiments were performed with 5 μM Rh123 as the probe substrate in stably transfected MDR1‐HEK293 cells. Cells were seeded onto polylysine‐coated 96‐well plates and gene expression was induced with tetracycline treatment at 1 μg/mL. […] Subsequently, the PBS was replaced with 80 μL of transport buffer again containing the respective inhibitor or solvent alone, and cells were further incubated for 60 min at 37°C for the efflux phase.
(§2) All graphs and diagrams were generated with GraphPad Prism 6 (GraphPad Software Inc., San Diego, CA, USA). The IC50 values were determined by nonlinear regression analysis using the equation log (inhibitor) versus response—variable slope settings. Statistical analyses were performed using GraphPad Prism 6. As detailed in the figure legends, either Student's t‐test or two‐way ANOVA was applied, as appropriate.

The target in data set [2] is cat MDR1 wt (feline MDR1 carrier) (Felis catus, UniProt D2KKF0). In words: Rh123 efflux inhibition (IC50) in stably transfected MDR1-HEK293 cells, cat MDR1 wt. Particulars: IC50, inhibition of Rh123 efflux, 5 μM Rh123, HEK293 after tetracycline treatment, one value per independent experiment (two experiments). The protocol:
as §1, §2

Data set [3] relates to dogs with homozygous MDR1 gene mutation. Particulars: cited from earlier work.
Data set [4] concerns wild-type MDR1 (P-glycoprotein) of dog and cat. In words: Rh123 efflux inhibition in MDR1-HEK293 cells, stated for both wild-type MDR1 carriers together. The following applies: dog and cat, IC50 range, inhibition of both wild-type MDR1 carriers (dog and cat), 5 μM Rh123, HEK293, range over both species and experiments. As for the experimental part: as §1, §2
The subject of data set [5] is dog MDR1 wt. In words: Rh123 transport experiment in HEK293 cells with/without tariquidar, dog MDR1 wt. The class given is cell-based. Particulars: 1 μM TQD, 5 μM Rh123, HEK293.
Data set [6] concerns MDR1 carrier (parent MDCKII, dog MDR1 wt and cat MDR1 wt MDCKII^MDR1ko cells). In words: Transwell transport experiments in MDCKII cells with Rh123 and [3H]digoxin. Type of data set: cell-based. The following applies: 1 μM TQD. The protocol: For transwell transport experiments in the MDCKII cell lines, 3 × 10^5 cells were seeded per 12‐mm/0.4 μm transwell membrane inserts (Sarstedt, Numbrecht, Germany). One day after seeding, the medium was changed. The transport experiments were performed 72 h after seeding and after reaching 100% confluence. Measurement of the transepithelial electrical resistance (TEER) was conducted on each well with the Millicell ERS‐2 electrical resistance system (Millipore) to confirm the integrity of the monolayer. Only cell monolayers that reached > 150 Ω cm^2 were used for the transport experiments. […] Fluorescence of Rh123 was detected with the GloMax plate reader. […] The amount of [^3H]digoxin in the samples was quantified by Tri‐Carb 2910TR Liquid Scintillation Analyzer (Perkin Elmer).
For all transwell experiments with Rh123 and [^3H]digoxin as the substrates, apparent permeability coefficients (P app, cm/s) and the efflux ratios (ER) were calculated as follows: Papp=V/A×C0×dQ/dt where “V” is the volume of the receiver chamber (1.5 or 0.5 mL), “A” is the surface area of the transwell inserts (being 1.1 cm^2), “C 0” is the initial concentration of the compound, and “dQ/dt” is the transport rate.
From the P app values of the AB and BA transport experiments, the ER was calculated as follows: [drawing 1]

The test system of data set [7] is cat MDR1 wt. In words: Rh123 transport experiment in HEK293 cells with/without tariquidar, cat MDR1 wt. Particulars: 1 μM TQD, 5 μM Rh123, HEK293.
Method: Cells were seeded onto polylysine‐coated 24‐well plates. Gene expression was induced with 1 μg/mL tetracycline treatment. Cells were grown to confluence over 72 h at 37°C. […] After 30 min pre‐incubation, transport experiments were started by replacing the medium with transport buffer additionally containing 5 μM Rh123. The Rh123 uptake was stopped after 90 min by two‐times washing with ice‐cold PBS. Subsequently, the PBS was again replaced with 250 μL of DMEM as the transport buffer, with or without TQD, and the efflux phase lasted over 60 min at 37°C. Then, experiments were stopped by two‐times washing with ice‐cold PBS. Finally, cells were lysed with 500 μL of 1 N NaOH with 0.1% SDS. Cell‐associated fluorescence of Rh123 was quantified by GloMax microplate reader (Promega). Fluorescence was detected at 490 nm excitation and 510–570 nm emission. […] The absolute fluorescence units per well were normalized to the protein amount and expressed as relative fluorescence units (RFU)/μg protein.
Data set [8] deals with wild-type MDR1 carriers of dog and cat. In words: Rh123 efflux inhibition in MDR1-HEK293 cells, stated for both wild-type MDR1 carriers together. The following applies: analyzed inhibitor concentration range, highest 100 μM. The protocol:
as §1, §2

In data set [9] the test system is MDR1 carrier. Details: method as in Lespine et al. [2007]. Particulars: membrane vesicles from DC-3F-/ADX MDR1-overexpressing cells; ref Lespine et al. [2007]; read-out: Ki, ATPase activity of the MDR1 carrier stimulated by verapamil; cited from earlier work.
Setting [10] is: stably transfected MDR1-HEK293 cells (tetracycline-induced), probe rhodamine 123 (Rh123), 5 μM.

Where “and” joins values, the source holds several entries; their conditions need not be identical. Equal entries are not always repeated. Entries after “also recorded” stand apart in the source; their conditions may differ. Where two headings read alike, the source gives them in different places.

dog MDR1 wt (canine MDR1 carrier), sequence (Q4PLA8 entry or part of it): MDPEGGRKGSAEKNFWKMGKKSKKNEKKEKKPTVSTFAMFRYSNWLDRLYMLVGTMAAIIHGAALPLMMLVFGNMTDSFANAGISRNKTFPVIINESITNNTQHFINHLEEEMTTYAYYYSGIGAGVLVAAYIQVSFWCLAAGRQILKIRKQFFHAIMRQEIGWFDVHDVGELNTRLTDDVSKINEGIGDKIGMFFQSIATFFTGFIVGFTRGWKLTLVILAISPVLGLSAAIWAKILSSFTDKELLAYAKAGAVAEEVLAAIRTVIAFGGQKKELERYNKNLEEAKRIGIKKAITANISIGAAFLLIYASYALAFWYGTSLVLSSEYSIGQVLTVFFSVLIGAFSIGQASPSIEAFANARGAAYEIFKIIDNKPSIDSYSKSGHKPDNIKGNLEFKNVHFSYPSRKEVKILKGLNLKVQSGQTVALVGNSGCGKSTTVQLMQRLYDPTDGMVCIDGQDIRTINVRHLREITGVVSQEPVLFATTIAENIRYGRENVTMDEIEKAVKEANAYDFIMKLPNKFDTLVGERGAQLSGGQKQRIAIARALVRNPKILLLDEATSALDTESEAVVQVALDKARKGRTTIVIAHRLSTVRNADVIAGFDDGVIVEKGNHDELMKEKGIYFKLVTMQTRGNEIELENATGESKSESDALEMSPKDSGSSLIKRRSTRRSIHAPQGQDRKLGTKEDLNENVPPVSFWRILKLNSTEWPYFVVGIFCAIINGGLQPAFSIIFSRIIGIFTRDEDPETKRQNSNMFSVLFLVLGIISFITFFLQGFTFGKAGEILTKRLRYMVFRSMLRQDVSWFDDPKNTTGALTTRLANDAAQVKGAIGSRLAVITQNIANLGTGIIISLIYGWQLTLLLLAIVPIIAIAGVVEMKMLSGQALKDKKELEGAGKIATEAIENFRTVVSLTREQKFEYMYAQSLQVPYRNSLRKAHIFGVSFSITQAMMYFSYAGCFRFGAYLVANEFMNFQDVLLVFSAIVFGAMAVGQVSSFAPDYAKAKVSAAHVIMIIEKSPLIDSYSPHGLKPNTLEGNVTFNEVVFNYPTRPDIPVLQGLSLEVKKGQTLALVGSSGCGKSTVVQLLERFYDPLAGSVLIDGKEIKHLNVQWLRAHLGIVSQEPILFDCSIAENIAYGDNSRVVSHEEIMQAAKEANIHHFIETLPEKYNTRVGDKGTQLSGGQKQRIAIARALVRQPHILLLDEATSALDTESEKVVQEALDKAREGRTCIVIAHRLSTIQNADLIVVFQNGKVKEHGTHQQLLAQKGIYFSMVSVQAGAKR
cat MDR1 wt (feline MDR1 carrier), sequence (D2KKF0 entry or part of it): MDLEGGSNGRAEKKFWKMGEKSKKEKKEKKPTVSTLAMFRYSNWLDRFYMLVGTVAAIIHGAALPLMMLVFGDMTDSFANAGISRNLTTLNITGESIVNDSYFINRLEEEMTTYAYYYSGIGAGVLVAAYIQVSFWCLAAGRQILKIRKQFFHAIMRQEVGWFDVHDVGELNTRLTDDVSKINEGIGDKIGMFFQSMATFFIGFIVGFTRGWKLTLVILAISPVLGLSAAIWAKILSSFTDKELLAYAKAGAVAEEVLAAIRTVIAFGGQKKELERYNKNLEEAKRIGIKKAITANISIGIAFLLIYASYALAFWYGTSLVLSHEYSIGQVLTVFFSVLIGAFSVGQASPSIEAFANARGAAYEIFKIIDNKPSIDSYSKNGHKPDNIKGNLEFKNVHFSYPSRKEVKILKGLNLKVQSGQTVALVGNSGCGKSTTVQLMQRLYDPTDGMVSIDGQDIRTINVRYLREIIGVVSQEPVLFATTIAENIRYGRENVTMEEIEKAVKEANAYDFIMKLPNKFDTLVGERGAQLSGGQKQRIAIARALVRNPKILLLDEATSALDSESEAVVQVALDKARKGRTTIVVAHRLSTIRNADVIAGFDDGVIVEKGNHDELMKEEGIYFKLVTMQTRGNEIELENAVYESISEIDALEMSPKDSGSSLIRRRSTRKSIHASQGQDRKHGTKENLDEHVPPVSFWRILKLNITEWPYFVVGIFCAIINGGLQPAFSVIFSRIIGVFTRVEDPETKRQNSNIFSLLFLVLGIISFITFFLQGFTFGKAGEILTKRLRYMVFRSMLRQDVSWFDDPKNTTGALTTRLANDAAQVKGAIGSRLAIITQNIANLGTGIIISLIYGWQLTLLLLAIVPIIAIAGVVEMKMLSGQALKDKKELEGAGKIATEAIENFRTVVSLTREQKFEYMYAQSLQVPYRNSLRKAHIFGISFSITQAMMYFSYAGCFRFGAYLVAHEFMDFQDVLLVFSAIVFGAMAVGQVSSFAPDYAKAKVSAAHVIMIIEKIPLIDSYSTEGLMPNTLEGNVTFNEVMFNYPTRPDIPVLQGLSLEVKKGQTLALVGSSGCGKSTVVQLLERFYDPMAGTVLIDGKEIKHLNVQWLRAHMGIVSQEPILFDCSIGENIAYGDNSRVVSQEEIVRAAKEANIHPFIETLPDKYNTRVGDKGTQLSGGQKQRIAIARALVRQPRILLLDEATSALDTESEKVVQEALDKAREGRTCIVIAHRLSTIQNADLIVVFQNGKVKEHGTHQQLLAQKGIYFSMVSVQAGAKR

For orientation: IC50 means the concentration at which inhibition is half-maximal. A lower IC50 goes with greater potency in that assay. On to `Cc1cc(C2=NO[C@](c3cc(Cl)cc(Cl)c3)(C(F)(F)F)C2)ccc1C(=O)NCC(=O)NCC(F)(F)F` [fluralaner], for which, in data set [1] (up to the maximum tested concentration of 100 μM), the “Inhibition of the canine MDR1 carrier” value is “did not inhibit”. The IC50 in data set [2] is 69.9 µM and > 100 µM. The “Safety of oral administration” value in [3] (Collies with homozygous MDR1 gene mutation, ref Walther et al. [2014]) was “treatment safety without neurological toxicity”.

With `CO[C@H]1C[C@H](O[C@H]2[C@H](C)O[C@@H](O[C@@H]3/C(C)=C/C[C@@H]4C[C@@H](C[C@]5(C=C[C@H](C)[C@@H](C6CCCCC6)O5)O4)OC(=O)[C@@H]4C=C(C)[C@@H](O)[C@H]5OC/C(=C\C=C\[C@@H]3C)[C@]54O)C[C@@H]2OC)O[C@@H](C)[C@@H]1O` [doramectin], in [3] (dogs with homozygous MDR1 mutation, 0.6 mg/kg subcutaneous injection, ref Mealey et al. [2001], Hopper et al. [2008], Geyer and Janko [2012]), the “Outcome of off-label treatment” value is on record as “fatal cases of neurological toxicity”.

`COc1cc2c(cc1OC)CN(CCc1ccc(NC(=O)c3cc(OC)c(OC)cc3NC(=O)c3cnc4ccccc4c3)cc1)CC2` [tariquidar]: the IC50 in [1] is 0.06 µM and 0.12 µM; in data set [2] it was 0.14 µM and 0.23 µM. This molecule also returned a half-maximal inhibitory concentration (IC50) at 60 min in [4] (setting [10]) of 0.1 to 0.2 µM. Besides, the “Effect on Rh123 efflux activity of wild-type canine MDR1” value in data set [5] is “fully abolished”. Further, the “Effect on transcellular transport of [3H]digoxin” value in data set [6] (1 μM [3H]digoxin, dog MDR1 wt and cat MDR1 wt cell lines) is listed as “completely abolished”. In addition, in data set [6] (5 μM Rh123, dog MDR1 wt and cat MDR1 wt cell lines), the “Effect on transcellular transport of Rh123” value is “completely abolished”. Also, the “Effect on Rh123 efflux activity of wild-type feline MDR1” value in data set [7] is on record as “TQD‐sensitive reduction in Rh123 accumulation”.

On to `Cc1cc(C2=NO[C@@](c3cc(Cl)c(Cl)c(Cl)c3)(C(F)(F)F)C2)sc1C(=O)NCC(=O)NCC(F)(F)F` [lotilaner], for which the IC50 in data set [1] was 23.2 µM and 10.9 µM; in [2] it was 17.5 µM and 10.9 µM. This molecule also yielded an IC50 at 60 min in data set [4] (setting [10]) of 11 to 23 µM.

In the case of `C/C=C/C[C@@H](C)C(=O)[C@H]1C(=O)N[C@@H](C(C)C)C(=O)N(C)CC(=O)N(C)[C@@H](CC(C)C)C(=O)N[C@@H](C(C)C)C(=O)N(C)[C@@H](CC(C)C)C(=O)N[C@@H](C)C(=O)N[C@H](C)C(=O)N(C)[C@@H](CC(C)C)C(=O)N(C)[C@@H](CC(C)C)C(=O)N(C)[C@@H](C(C)C)C(=O)N1C` [PSC833, valspodar], the IC50 is 0.66 µM and 0.95 µM in [1]; 1.5 µM in [2]. In data set [4], this molecule came in with an IC50 at 60 min of 1 to 2 µM.

Consider `O=C(CNC(=O)c1ccc(C2=NO[C@](c3cc(Cl)cc(C(F)(F)F)c3)(C(F)(F)F)C2)c2ccccc12)NCC(F)(F)F` [afoxolaner], for which the “Interaction with / inhibition of the MDR1 carriers from either species” value in [8] is on record as “no detectable interaction; also recorded: no inhibition”. The “Safety of oral administration” value in [3] (dogs with homozygous MDR1 gene mutation, monotherapy or in combination with milbemycin oxime, ref Drag et al. [2022]) was “safe”.

Take `CS(=O)(=O)CC(=O)N1CC2(C1)OCc1cc(C3=NO[C@@](c4cc(Cl)c(F)c(Cl)c4)(C(F)(F)F)C3)ccc12` [sarolaner]: the IC50 was 41.6 µM and 30 µM in data set [1]; 56.5 µM and 35.1 µM in data set [2]. In [4], this molecule yielded an IC50 at 60 min of 30 to 57 µM.

On to `CO/N=C1\C[C@]2(C[C@@H]3C[C@@H](C/C=C(\C)C[C@@H](C)/C=C/C=C4\CO[C@@H]5[C@H](O)C(C)=C[C@@H](C(=O)O3)[C@]45O)O2)O[C@H](/C(C)=C/C(C)C)[C@H]1C` [moxidectin], for which the IC50 was 21.2 µM and 15.2 µM in [1]; 9.2 µM and 8.4 µM in data set [2]. In [4] (setting [10]), this molecule showed an IC50 at 60 min of 8 to 21 µM.

Usually Ki stands for the dissociation constant of the complex between target and ligand, obtained from inhibition or displacement. On to `CO[C@H]1C[C@H](O[C@@H]2/C(C)=C/C[C@@H]3C[C@@H](C[C@]4(CC[C@H](C)[C@@H](C5CCCCC5)O4)O3)OC(=O)[C@@H]3C=C(C)/C(=N/O)[C@H]4OC/C(=C\C=C\[C@@H]2C)[C@]43O)O[C@@H](C)[C@@H]1O` [selamectin], for which the IC50 in [1] was 21.5 µM and 15.7 µM; in [2], 14.3 µM and 10.3 µM. In data set [4], this molecule gave an IC50 at 60 min of 10 to 22 µM. In data set [9], the Ki was 1000 nM. The “Oral dose remaining without clinical symptoms of neurological toxicity” value in data set [3] (ivermectin-sensitive Collies, oral, ref Geyer and Janko [2012]) is listed as “exceeding 15 mg/kg”.
